The record followed here is US6989451B2, “Heterocyclic compounds and uses thereof” (Valeant Research & Development, priority 2002, dated 2006).

The target of one experiment is T1, GST-hMEK1 and mERK2 (Homo sapiens, UniProt Q02750).
T1 construct: purified GST-hMEK1 and mERK2 enzymes; fused on or other part: GST tag on hMEK1
Type of experiment: biochemical. The following applies: minimum concentration causing 50% inhibition in vitro assays; MEK kinase inhibition. The protocol: In order to identify ideal inhibitory compounds in a high throughput-screening (HTS) format a 96-well radiolabel incorporation format assay utilizing purified GST-hMEK1 and mERK2 enzymes was developed. Compounds were diluted from dimethylsulfoxide (DMSO) stocks into 1× Simplified Assay Buffer (SAB) (20 mM HEPES and 10 mM MgCl2). A typical 25 microliter assay contained 0.002 nanomoles MEK^CA, 0.02 nanomoles ERK, 0.25 nanomoles MBP, 0.25 nanomoles unlabeled ATP, and 0.1 μCi [γ^33P] ATP. The screening assay essentially comprised four additions. Five μ1 of diluted compound were dispensed to 96-well assay plates. Ten μl of 2.5× enzyme cocktail (MEK^CA and ERK only) were then added to each well followed by a pre-incubation for 15 minutes at 37° C. […] Finally, 200 μl of 10% trichloroacetic acid (TCA) were added and incubated for 30 minutes to halt the reaction and precipitate radio labeled protein products. A filter plate was placed in the Filtermate Harvester, wetted twice with water, and rinsed twice with 1% pyrophosphate to block nonspecific binding to the glass filter. An assay plate was then scanned and aspirated or harvested onto the filter plate. The filter plate was then washed 12 times with water. Water was displaced by two washes with absolute ethanol and the plate was removed and allowed to air dry for 30 minutes at room temperature. A back seal was applied manually and 40 μl of scintillation cocktail were dispensed per well. A top seal was applied and the plate was counted in the TopCount for two seconds per well.

Experiment [1] relates to MEK-ERK dependent luciferase expression (constitutively activated mutant MEK) in 293T cells. The experiment in a line: Cell-based MEK-ERK dependent luciferase reporter assay in 293T cells. As to conditions: Homo sapiens, HEK-293T, minimum concentration causing 50% inhibition in cell-based assays, 24 hours incubation. The protocol: Activities of compounds were determined using a cell-based assay system. 293T cells were engineered to express a luciferase reporter protein in response to activation of ERK. ERK was activated by the doxycycline inducible expression of a constitutively activated mutant MEK. The activated MEK mutant had serines 218 and 222 replaced with aspartic acids. Therefore, addition of doxycycline to the media of cells induced an increase in MEK-ERK dependent luciferase expression.
Cells were plated at 5000 cells per well of a 384 well plate in 20 ul of media containing 10 ng/ml doxycycline. Compounds were resuspended in DMSO at a concentration of 20 mM. These compound stocks were diluted at least 200 fold so the concentration of DMSO was never above 0.5%. Cells were incubated with compounds for 24 hours at which time 25 ul of Steady-Glo (Promega Corp.) was added. The plates were then assayed for luminescence. Percent inhibition was calculated by dividing the luminescence of compound treated cells by control cells.
(In general: Reporter assays use an easily measured gene product as a stand-in for the process of interest.)

T1 sequence (P63085 2-358): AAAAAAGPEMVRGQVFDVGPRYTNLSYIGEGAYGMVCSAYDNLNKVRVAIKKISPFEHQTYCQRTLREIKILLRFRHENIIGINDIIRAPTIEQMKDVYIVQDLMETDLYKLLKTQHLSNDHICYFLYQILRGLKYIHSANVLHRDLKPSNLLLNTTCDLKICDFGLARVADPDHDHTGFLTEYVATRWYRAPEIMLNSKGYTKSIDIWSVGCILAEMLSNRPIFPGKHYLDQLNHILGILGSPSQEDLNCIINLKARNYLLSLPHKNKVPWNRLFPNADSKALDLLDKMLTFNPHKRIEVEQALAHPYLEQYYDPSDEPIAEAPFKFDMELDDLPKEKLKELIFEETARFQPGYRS
T1 sequence (Q02750 whole entry, the tested form may be a part): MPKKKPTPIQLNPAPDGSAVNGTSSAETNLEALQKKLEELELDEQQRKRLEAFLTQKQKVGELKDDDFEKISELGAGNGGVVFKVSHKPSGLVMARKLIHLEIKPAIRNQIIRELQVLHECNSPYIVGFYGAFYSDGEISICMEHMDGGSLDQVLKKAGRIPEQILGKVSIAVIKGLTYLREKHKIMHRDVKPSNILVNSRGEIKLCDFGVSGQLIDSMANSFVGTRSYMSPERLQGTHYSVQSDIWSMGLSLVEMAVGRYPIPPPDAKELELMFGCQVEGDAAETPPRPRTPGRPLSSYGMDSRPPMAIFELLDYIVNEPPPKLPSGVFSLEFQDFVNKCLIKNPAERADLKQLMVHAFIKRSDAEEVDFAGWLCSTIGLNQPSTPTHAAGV

As for `CC(=O)c1ccc(Nc2snc(O)c2C#N)cc1` [Compound 22], at GST-hMEK1 and mERK2, the IC50 is less than 10 µM. On the same count and under the same terms, next, `N=C(N)c1c(O)nsc1Nc1ccc(Oc2ccccc2)cc1` [Compound 36]: less than 10 µM. The same measure, in the same setting: next, `N#Cc1c(O)nsc1N1CCCCC1` [Compound 33]: less than 10 µM. Consider `CC(C)c1ccc(Nc2snc(O)c2C#N)cc1` [Compound 15], for which the EC50 in experiment [1] is less than 10 µM. At GST-hMEK1 and mERK2, the half-inhibitory concentration (IC50) is less than 10 µM. In the case of `N#Cc1c(O)nsc1Nc1ccc(Cl)cc1` [Compound 9], in experiment [1], the EC50 is more than 100 µM. At GST-hMEK1 and mERK2, this molecule yielded a concentration for half-maximal inhibition (IC50) of 10 to 100 µM.

In experiment [1], `Cc1cccc(Nc2s[nH]c(=O)c2C#N)c1` [Compound 4] displayed an EC50 of 10 to 100 µM. At GST-hMEK1 and mERK2, this molecule returned an IC50 of 10 to 100 µM. In turn, `N#Cc1c(O)nsc1NC1CCc2ccccc21` (stereo not shown) [Compound 31] returned an IC50 on GST-hMEK1 and mERK2 of less than 10 µM. For `N#Cc1c(O)nsc1Nc1ccccc1C(F)(F)F` [Compound 19], the half-maximal inhibitory concentration (IC50) on GST-hMEK1 and mERK2 lay within 10 to 100 µM. In turn, `COC(=O)c1ccc(Nc2snc(O)c2C#N)cc1` [Compound 25] came in with an IC50 against GST-hMEK1 and mERK2 of less than 10 µM. In the case of `COc1cccc(Nc2snc(O)c2C#N)c1` [Compound 8], in experiment [1], the EC50 was more than 100 µM.

Molecule `N#Cc1c(O)nsc1Nc1ccccc1Cl` [Compound 11] came in with an EC50 in experiment [1] of more than 100 µM. This molecule also gave an IC50 on GST-hMEK1 and mERK2 of 10 to 100 µM.

At GST-hMEK1 and mERK2, `COC(=O)c1ccccc1Nc1snc(O)c1C#N` [Compound 27] registered an IC50 of less than 10 µM. Molecule `NC(=O)c1c(O)nsc1Nc1ccc(Oc2ccccc2)cc1` [Compound 37] registered an IC50 at GST-hMEK1 and mERK2 of less than 10 µM.

In experiment [1], `N#Cc1c(Br)nsc1Nc1ccccc1` [Compound 2] yielded an EC50 of less than 10 µM. This molecule also displayed an IC50 on GST-hMEK1 and mERK2 of 10 to 100 µM. `N#Cc1c(O)nsc1NCC1CCCO1` (stereo not shown) [Compound 34] returned an IC50 at GST-hMEK1 and mERK2 of less than 10 µM.

The molecule `Cc1ccc(Nc2snc(O)c2C#N)cc1` [Compound 3] returned an EC50 in experiment [1] of less than 10 µM. The IC50 at GST-hMEK1 and mERK2 lay within 10 to 100 µM. The molecule `N#Cc1c(O)nsc1NCCc1ccc(O)cc1` [Compound 35] yielded an IC50 at GST-hMEK1 and mERK2 of less than 10 µM. On the same count and under the same terms, the figure for `N#Cc1c(O)nsc1NCCCN1CCOCC1` [Compound 40] is less than 10 µM; for `N#Cc1c(O)nsc1Nc1ccc(N)cc1` [Compound 21] it is less than 10 µM. Take `CCCCNc1snc(O)c1C#N` [Compound 32]: the IC50 on GST-hMEK1 and mERK2 was less than 10 µM.

In experiment [1], `N#Cc1c(O)nsc1Nc1cccc(Cl)c1` [Compound 10] had an EC50 of more than 100 µM. In addition, at GST-hMEK1 and mERK2, the IC50 lay in the range of 10 to 100 µM. The corresponding values for `N#Cc1c(O)nsc1Nc1ccccc1` [Compound 1] are 10 to 100 µM and less than 10 µM. In the case of `N#Cc1c(OC2CCCCC2)nsc1Nc1ccccc1` [Compound 38], the 50% inhibitory concentration (IC50) against GST-hMEK1 and mERK2 is less than 10 µM.

For the molecule `COc1ccc(Nc2snc(O)c2C#N)cc1` [Compound 6], in experiment [1], the concentration giving a half-maximal response (EC50) was more than 100 µM. As for `CN(C)c1ccc(Nc2snc(O)c2C#N)c2ccccc12` [Compound 18], the EC50 in experiment [1] was less than 10 µM. Further, on GST-hMEK1 and mERK2, the IC50 is less than 10 µM. `N#Cc1c(O)nsc1Nc1cccnc1` [Compound 29]: the IC50 at GST-hMEK1 and mERK2 is less than 10 µM. On the same count and under the same terms, the figure for `CC(C)Nc1snc(O)c1C#N` [Compound 39] is less than 10 µM.

In the case of `COc1cc(-c2ccccc2)ccc1Nc1snc(O)c1C#N` [Compound 14], the EC50 in experiment [1] was more than 100 µM. Besides, on GST-hMEK1 and mERK2, the half-maximal inhibitory concentration (IC50) is less than 10 µM.

`CN(C)c1ccc2ccccc2c1Nc1snc(O)c1C#N` [Compound 17] showed a concentration for a half-maximal effect (EC50) in experiment [1] of less than 10 µM. At GST-hMEK1 and mERK2, this molecule gave an IC50 of less than 10 µM. In the case of `N#Cc1c(O)nsc1Nc1cccc2ccccc12` [Compound 13], the EC50 in experiment [1] is less than 10 µM. The molecule further registered an IC50 against GST-hMEK1 and mERK2 of less than 10 µM. Take `Cc1ccccc1Nc1snc(O)c1C#N` [Compound 5]: in experiment [1], the EC50 was in the range of 10 to 100 µM. This molecule also came in with a half-inhibitory concentration (IC50) against GST-hMEK1 and mERK2 of 10 to 100 µM. At GST-hMEK1 and mERK2, `N#Cc1c(O)nsc1Nc1ccccc1F` [Compound 26] had an IC50 of less than 10 µM. Same read-out and setting: the figure for `Cc1ccc(Nc2snc(N)c2C#N)cc1` [Compound 20] is less than 10 µM. As to `N#Cc1c(O)nsc1Nc1ccc([N+](=O)[O-])cc1` [Compound 12], the EC50 in experiment [1] was more than 100 µM. On GST-hMEK1 and mERK2, this molecule displayed an IC50 of less than 10 µM. For the molecule `COc1ccccc1Nc1snc(O)c1C#N` [Compound 7], in experiment [1], the EC50 was more than 100 µM. As for `CC(C)c1cccc(C(C)C)c1Nc1snc(O)c1C#N` [Compound 16], in experiment [1], the EC50 is 10 to 100 µM. In addition, at GST-hMEK1 and mERK2, the IC50 lay in the range of 10 to 100 µM. As to `N#Cc1c(Nc2ccc(Br)cc2)s[nH]c1=O` [Compound 24], on GST-hMEK1 and mERK2, the IC50 is less than 10 µM.

In general, IC50 refers to the concentration that inhibits the measured activity by half. Broadly, the EC50 is the concentration needed to bring the measured effect to its halfway point.
